In patent US6331642A, “Vitamin D3 analogs” (Hoffmann-La Roche Inc., priority 2000, dated 2001):
Like-named read-outs stand apart in the source and are kept apart here.

Key:
[1] = system: MCF-7 cells; assay: Pulse-exposure experiments, soft agar colony assay; assay type: cell-based; conditions: 4 days of exposure, 10^-7, colonies counted day 14
Protocol: Pulse-Exposure Experiments. The MCF-7 cells were incubated in liquid culture with 10^-7 of 1,25(OH)2 D3 or 1,25(OH)2 -16-ene-5,6-trans-D3 for various duration. After incubation, these cells were carefully washed twice with PBS and viable cells were counted and plated into 24-well plates for soft agar colony assay, as previously described.
Pulse-Exposure Experiments. […] The MCF-7 cells were exposed to either 1,25(OH)2 -16-ene-5,6-trans-D3 or 1,25(OH)2 D3 for various durations, washed thoroughly, plated in soft agar, and colony numbers were enumerated on day 14 of culture.

[2] = system: MCF-7 cells; assay: Cell cycle analysis by flow cytometry; assay type: cell-based; conditions: 10^-7 M, 4 days
Protocol: Cell Cycle Analysis by Flow Cytometry. Cell cycle analysis was performed on MCF-7 cells incubated for 4 days with either 1,25(OH)2 D3 or 1,25(OH)2 -16-ene-5,6-trans-D3 at 10^-7 M. The cells were fixed in chilled methanol overnight before staining with 50 μg/ml propidium iodide, 1 mg/ml Rnase (100 units/ml) and 0.1% NP40. Analysis was performed immediately after staining. All experiments were done at least three times independently. All data were statistically analyzed by Student's test.
Cell cycle Analysis. Effect of 1,25(OH)2 -16-ene-5,6-trans-D3 and 1,25(OH)2 D3 (10^-7, 4 days) on the cell cycle of the MCF-7 cells was determined.

[3] = system: hTERT mRNA; assay: hTERT mRNA expression (RT-PCR) in HL-60 cells; assay type: cell-based, human; conditions: for IC (almost complete): Homo sapiens, read-out: concentration giving almost complete inhibition of hTERT mRNA expression
Protocol: Telomerase Activity. To detect the relative telomerase activity, telomeric repeat amplification protocol (TRAP) assays were performed. For human telomerase reverse transcriptase (hTERT), total RNAs were isolated from HL-cells which were treated with either 1,25(OH)2 D3 or 1,25(OH)2 -16-ene-5,6-trans-D3 (10^- 9 10^-8, and 10^-7 M) for 4 days with a monophasic solution of phenol and guanidine isothiocyanate. RT-PCR was performed with 1 μg of total RNA and random hexamer primers. cDNA was amplified using primers specific for the hTERT gene or the GAPDH gene, which was used as a control. The primers used for hTERT were: 5'-[…]-3' (sense) (SEQ ID NO: 1), and 5'-GGATGAAGCGGAGTCTGGA-3'-(antisense) (SEQ ID NO: 2). The thermal cycles were 94° C. for 90 seconds, followed by 33 cycles of 95° C. for 20 seconds, 68° C. for 40 seconds, and 72° C. for 30 seconds. Primers for the GAPDH gene were: 5'-CCATGGAGAAGGCTGGGG-3' (sense) (SEQ ID NO: 3), and 5'-[…]-3' (antisense) (SEQ ID NO: 4). Conditions for GAPDH amplifications were: 94° C. for 2 minutes, 26 cycles of 94° C. for 30 seconds, 62° C. for 40 seconds, 72° C. for 60 seconds, followed by 72° C. for 4 minutes. PCR products were electrophoresed on 1% agarose gel and stained with ethidium bromide.
The effects of vitamin D3 analogs on hTERT expression in HL-60 cells was evaluated using RT-PCR.

[4] = system: ventral prostate; assay: Antiandrogenic activity in castrated testosterone stimulated hamsters, ventral prostate; assay type: in vivo, male Syrian hamsters
Protocol: 1,25(OH)2 -16-ene-5,6-trans D3 was evaluated for antiandrogenic activity in castrated, testosterone stimulated male Syrian hamsters.
[…] Both compounds were administered in a vehicle of 0.2 ml sesame oil each. Necropsy was performed on day 15. The prostate and seminal vesicles were removed, blotted and weighed. Data were analyzed for statistical significance using the Student's t-test and are expressed as percent inhibition of stimulated response.

[5] = system: prostate cancer cell line (LNCaP); assay: Clonogenic assay in soft agar, LNCaP; assay type: cell-based; conditions: Homo sapiens, LNCaP cells, read-out: ED50 (effective dose that inhibited 50% colony formation)
Protocol: (§1) Cell lines. The breast cancer cell line (MCF-7), prostate cancer cell line (LNCaP) and myeloid leukemia cell line (HL-60) were maintained as follows: MCF-7 cells were maintained in Dulbecco's Modified Eagle Media (DMEM) with 10% fetal calf serum (FCS); LNCaP and HL-60 were cultured in RPMI1640 with 10% FCS; All three cell lines were maintained in a 37° C. incubator containing 5% CO2.
(§2) Vitamin D3 Compounds. The vitamin D3 compounds were dissolved in absolute ethanol at 10^-3 M as stock solution, which were stored at -20° C. and protected from light. For in vitro use, compounds were diluted in DMEM or RPMI medium. For in vivo use, compounds were diluted with phosphate buffered saline (PBS). […]. Washed single-cell suspensions of cells were enumerated and plated into 24-well flat-bottomed plates with a total of […] cells/well in a volume of 400 μl/well. The feeder layer was prepared with agar that had been equilibrated at 42° C. Prior to this step, compounds were pipetted into wells. After incubation, the colonies were counted. All experiments were done at least three times using triplicate plates per experimental point.
(§3) Effect of Vitamin D3 analogs on Clonogenic Assay. […]

[6] = system: breast cancer cell line (MCF-7); assay: Clonogenic assay in soft agar, MCF-7; assay type: cell-based; conditions: Homo sapiens, MCF7, MCF-7 cells, read-out: ED50 (effective dose that inhibited 50% colony formation)
Protocol: as §1, §2, §3

[7] = system: LNCaP cells, MCF-7 cells and HL-60 cells; assay: Clonogenic assay, three cell lines together; assay type: cell-based
Protocol: as §1, §2, §3

[8] = Serum calcium levels, adult female rats, day 7 of oral dosing; assay type: in vivo; conditions: for Serum Calcium Mean: vehicle 9.65
Protocol: Three month old adult female rats were used. […] On day 7 of dosing, animals were bled and serum calcium levels were determined. Compound was dissolved in 200 proof ethanol to produce a concentration of 100 μg/ml. […] Dose volume was calculated using the dosing group average body weight. Serial dilutions of vehicle dissolved compound were done to appropriate dosage concentrations. Blood (1.5 ml) was collected from each animal by orbital puncture under ether anesthesia on Day 7 of dosing. Blood was collected into serum separator tubes, centrifuged at 2000 rpm for 15 minutes and then serum aliquoted for calcium determinations. Serum calcium was determined by colorimetric assay.

[9] = testosterone + 0.1 μg compound s.c. daily, 14 days

For `C=C1/C(=C\C=C2/CCC[C@]3(C)[C@@H]([C@H](C)CCCC(C)(C)O)CC[C@@H]23)C[C@@H](O)C[C@@H]1O` [1,25(OH)2 D3, reference compound], the clonogenic cells inhibited [1] was “thirty”, the “number of cells in the G0-G1 phase” value [2] was “significant increase (P≤0.05)” and the “proportion of cells in S phase” value [2] was “concomitant decrease”. For the same molecule, the “expression of hTERT mRNA” value ([3]; HL-60 cells, 4 days) was “inhibited the expression of hTERT mRNA in a dose-dependent manner”, the IC (almost complete) ([3]; HL-60, 96 h) was 0.1 µM and the “androgen-induced hypertrophy of the ventral prostate gland” value ([4]; non-toxic doses (1 μg)) was “inactive”.
In the case of `C=C1/C(=C/C=C2\CCC[C@]3(C)C([C@H](C)CCCC(C)(C)O)=CC[C@@H]23)C[C@@H](O)C[C@@H]1O` [1,25(OH)2-16-ene-5,6-trans-D3, 1,25-Dihydroxy-16-ene-5,6-trans-cholecalciferol], the IC50 [5] is reported as 1.4 nM, the IC50 [6] is reported as 4.3 nM and the “inhibition of clonal proliferation” value ([7]; 10^-11 to 10^-7 M) is reported as “effective in inhibition of clonal proliferation of the three cell lines in a dose-dependent manner”. The “potency relative to 1,25(OH)2 D3 (fold more potent)” value ([7]; vs 1,25(OH)2 D3, about) was 10-100 fold, the clonogenic cells inhibited [1] was “Approximately forty” and the “number of cells in the G0-G1 phase” value [2] was “significant increase (P≤0.05)”. The “proportion of cells in S phase” value [2] was “concomitant decrease”, the “expression of hTERT mRNA” value ([3]; HL-60 cells, 4 days) was “inhibited the expression of hTERT mRNA in a dose-dependent manner” and the IC (almost complete) ([3]; 96 h, HL-60 cells, 4 days) was 0.01 µM. For the same molecule, the “androgen-induced hypertrophy of the ventral prostate gland” value ([4]; castrated, testosterone stimulated hamsters) was “substantially suppressed”, the “Ventral prostate Inhib. (percent inhibition of stimulated response)” value [4, 9] was 77% and the Ventral prostate weight [4, 9] was 19 ± 2 mg. For the same molecule, the “Serum Calcium Mean” value ([8]; 0.5 μg/kg/day oral) was 10.64 mg/dL, the “Serum Calcium Mean” value ([8]; 1 μg/kg/day oral) was 10.06 mg/dL and the “Serum Calcium Mean” value ([8]; 1.5 μg/kg/day oral) was 9.92 mg/dL. The “Serum Calcium Mean” value ([8]; 2 μg/kg/day oral) was 9.77 mg/dL and the serum calcium levels ([8]; up to 2 μg/kg/day oral) was “within the normal range”.
